Data: patent US20260256780A1, “COMPOSITIONS FOR INDUCING RAS GTP HYDROLYSIS AND USES THEREOF” (Revolution Medicines, Inc., priority 2023, published 2026)

Tests used:
[1] = target: T1, GTP-loaded KRAS proteins (residue 1-169 of KRAS4B) (Homo sapiens, UniProt P01116, G12V); assay: RAS GTP hydrolysis rate assay (GTPase-Glo) with cyclophilin A; type: biochemical; details: bound in tri-complex with cyclophilin A; in some embodiments KRAS^G12V is the isoform used
T1 construct: recombinant KRAS proteins (residue 1-169 of KRAS4B); His6 (TEV protease-cleavable) (cleaved yes); made in house; host or cells: E. coli
Procedure: (§1) The rate of RAS GTP hydrolysis was assayed in the presence of various KRAS mutations. To assess GTP hydrolysis activity, recombinant KRAS proteins (residue 1-169 of KRAS4B) were expressed in E. coli and purified using a TEV protease-cleavable His6-tag and Ni^2+ affinity chromatography. The His6 tag was removed by treatment with TEV protease, and the KRAS protein was isolated by passing through a second Ni^2+ column followed by size exclusion chromatography. The purified KRAS proteins were loaded with GTP by incubation for 2 hours on ice with 2 mM GTP and 10 mM Ethylenediaminetetraacetic Acid, followed by addition of 10 mM MgCl2 and incubation on ice for 1 additional hour. The excess GTP was removed by overnight dialysis against buffer (12.5 mM HEPES, 75 mM NaCl, pH 7.5) at 4° C. The GTP-loaded KRAS protein were flash frozen in liquid nitrogen, then stored at −80° C. until use.
(§2) GTP-loaded KRAS proteins (1 μM) were combined with 25 μM of recombinant human cyclophilin A and 10 μM of compound in reaction buffer (12.5 mM HEPES, 75 mM NaCl, 1 mM MgCl2, 1 mM DTT, 1% DMSO, pH 7.5) pre-warmed to 37° C. At fixed time points, aliquots were removed and quenched by heating to 80° C. to denature the proteins, then centrifuged to pellet the protein precipitate. The supernatant was assessed for GTP levels using Promega GTPase-Glo™ according to manufacturer instructions. The levels of GTP as a function of incubation time were fit to a single phase exponential decay to determine the rate constant for hydrolysis activity.

[2] = tested on: GTP-loaded KRAS proteins (residue 1-169 of KRAS4B); assay: as above; type: biochemical; details: 10 μM compound, 25 μM cyclophilin A, 37° C.
Procedure: as §1, §2

Structure (SMILES) | hydrolyzer class: RAS(ON) GTP hydrolysis rate relative to the intrinsic hydrolysis rate [1] | RAS GTP hydrolysis activation [2]
CO[C@@H](C)c1ncccc1-c1c2c3cc(ccc3n1CC(F)(F)F)CCN(C)C[C@H](NC(=O)[C@H]1C[C@@H]1C)C(=O)N1CCC[C@H](N1)C(=O)OCC(C)(C)C2 (atropisomer, axis not shown) [compound 9] | 9 Weak | –
CO[C@@H](C)c1ncccc1-c1c2c3cc(ccc3n1CC(F)(F)F)CCOC[C@H](NC(=O)[C@H]1C[C@@H]1C)C(=O)N1CCC[C@H](N1)C(=O)OCC(C)(C)C2 (atropisomer, axis not shown) [compound 10] | 10 Moderate | –
CO[C@@H](C)c1ncc(N2CCN(C)CC2)cc1-c1c2c3cc(ccc3n1CC(F)(F)F)-c1csc(n1)C[C@H](NC(=O)[C@H]1C[C@@H]1C)C(=O)N1CCC[C@H](N1)C(=O)OCC(C)(C)C2 (atropisomer, axis not shown) [compound 11] | 11 Moderate | –
CCn1c(-c2cc(N3CCN(C)CC3)cnc2[C@H](C)OC)c2c3cc(ccc31)-c1csc(n1)C[C@H](NC(=O)[C@H]1C[C@@H]1C)C(=O)N1CCC[C@H](N1)C(=O)OCC(C)(C)C2 (atropisomer, axis not shown) [compound 12] | 12 Moderate | –
CCn1c(-c2cc(N3CCN(C)CC3)cnc2[C@H](C)OC)c2c3cc(ccc31)-c1csc(n1)C[C@H](NC(=O)[C@H](C(C)C)N(C)C(=O)N(C)C)C(=O)N1CCC[C@H](N1)C(=O)OCC(C)(C)C2 (atropisomer, axis not shown) [compound 13] | 13 Moderate | –
CCn1c(-c2cc(N3CCN(C)CC3)cnc2[C@H](C)OC)c2c3cc(ccc31)-c1csc(n1)C[C@H](NC(=O)[C@H](C(C)C)N(C)C(=O)N1CC(N(C)C)C1)C(=O)N1CCC[C@H](N1)C(=O)OCC(C)(C)C2 (atropisomer, axis not shown) [compound 14] | 14 Moderate | –
CCn1c(-c2cccnc2[C@H](C)OC)c2c3cc(ccc31)-c1cc(O)cc(c1)C[C@H](NC(=O)[C@H](C(C)C)N(C)C(=O)C1(C#N)CC1)C(=O)N1CCC[C@H](N1)C(=O)OCC(C)(C)C2 (racemic) [Compound F, reference compound] | – | does not activate GTP hydrolysis

The remaining lines, values ahead:

hydrolyzer class: RAS(ON) GTP hydrolysis rate relative to the intrinsic hydrolysis rate [1] | RAS GTP hydrolysis activation [2] | Structure (SMILES)
15 Moderate | – | CCO[C@@H]1c2nc(cs2)-c2ccc3c(c2)c(c(-c2cc(N4CCN(C)CC4)cnc2[C@H](C)OC)n3CC)CC(C)(C)COC(=O)[C@@H]2CCCN(N2)C(=O)[C@H]1NC(=O)[C@H]1[C@H](C)[C@@H]1C (atropisomer, axis not shown) [compound 15]
16 Moderate | – | CCO[C@@H]1c2nc(cs2)-c2ccc3c(c2)c(c(-c2cc([C@@H]4CCN5CCOC[C@@H]5C4)cnc2[C@H](C)OC)n3CC)CC(C)(C)COC(=O)[C@@H]2CCCN(N2)C(=O)[C@H]1NC(=O)[C@H]1[C@H](C)[C@@H]1C (atropisomer, axis not shown) [compound 16]
17 Weak | – | CCO[C@@H]1c2nc(cs2)-c2ccc3c(c2)c(c(-c2cccnc2[C@H](C)OC)n3CC)CC(C)(C)COC(=O)[C@@H]2CCCN(N2)C(=O)[C@H]1NC(=O)[C@@H]1[C@@H](C)[C@H]1C(=O)N(C)C (atropisomer, axis not shown) [compound 17]
18 Weak | – | CCO[C@@H]1c2nc(cs2)-c2ccc3c(c2)c(c(-c2cc(N4CCN(C)CC4)cnc2[C@H](C)OC)n3CCOC(C)C)CC(C)(C)COC(=O)[C@@H]2CCCN(N2)C(=O)[C@H]1NC(=O)N1CC[C@H]1C (atropisomer, axis not shown) [compound 18]
19 Moderate | – | CCn1c(-c2cccnc2[C@H](C)OC)c2c3cc(ccc31)-c1csc(n1)C[C@H](NC(=O)[C@H](C(C)C)N(C)C(=O)N1CC(OC)C1)C(=O)N1CCC[C@H](N1)C(=O)OCC(C)(C)C2 (atropisomer, axis not shown) [compound 19]
20 Weak | – | CCn1c(-c2cc(N3CCN(C)CC3)cnc2[C@H](C)OC)c2c3cc(ccc31)-c1cccc(c1)C[C@H](NC(=O)[C@H]1C[C@@H]1C)C(=O)N1CCC[C@H](N1)C(=O)OCC(C)(C)C2 (atropisomer, axis not shown) [compound 20]
21 Weak | – | CCn1c(-c2cc(N3CCN(C)CC3)cnc2[C@H](C)OC)c2c3cc(ccc31)-c1cccc(n1)C[C@H](NC(=O)[C@H]1C[C@@H]1C)C(=O)N1CCC[C@H](N1)C(=O)OCC(C)(C)C2 (atropisomer, axis not shown) [compound 21]
22 Weak | – | CCn1c(-c2cc(N3CCN(C)CC3)cnc2[C@H](C)OC)c2c3cc(ccc31)N1CCO[C@@H](C[C@H](NC(=O)[C@H]3C[C@@H]3C)C(=O)N3CCC[C@H](N3)C(=O)OCC(C)(C)C2)C1 (atropisomer, axis not shown) [compound 22]
